Where two headings read alike, the source gives them in different places. Marks after values point to notes of the source that are not given here.
Experiments:
CYP168A1 [1] = target: T1, CYP168A1 (Pseudomonas aeruginosa, UniProt Q9I107); assay: Fatty acid binding studies (spectral titration, type I difference spectra); settings: for Low- to high-spin state change (%): from ΔAmax; for Kd: read-out: Ks, mean of four replicates ± SD
Procedure: The absorbance difference spectra from 500 nm to 350 nm were determined after each incremental addition of fatty acid. Ligand saturation curves were constructed from the change in absorbance (ΔApeak-trough) against fatty acid concentration. The dissociation constant for the fatty acid-CYP168A1 complex (Ks) was determined by nonlinear regression (Levenberg-Marquardt algorithm) using a rearrangement of the Morrison equation [14] and the Michaelis-Menten equation. […]. All fatty acid binding experiments were undertaken in quadruplicate.
In between ligand binding determinations, the quartz cuvettes were washed with deionized water and then soaked for 30 min in 2-propanol at room temperature to desorb any residual fatty acids from the cuvette surfaces, followed by rinsing a further three-times with 2-propanol and then deionized water prior to drying.

CYP168A1 [2] = settings: cited from earlier work
CYP168A1 [3] = settings: cited from earlier work; remark: listed apart in the source
CYP168A1 [4] = target: T1, CYP168A1; type: biochemical; settings: 0.5% DMF in the CYP168A1 assay system
Procedure: Assay mixtures were incubated at 37°C for 5 min prior to initiation with 4 mM β-NADPH-Na4 and then incubated for a further 2.5 hours at the same temperature. Fatty acids and their hydroxylated products were recovered by extraction with dichloromethane and dried in a vacuum centrifuge. TMS derivatisation of the samples and analysis by GCMS were performed as previously described. Percentage product formation was calculated from the GC peak areas of the fatty acid and the hydroxylated metabolites, with compound identities confirmed by mass fragmentation patterns of fatty acid standards.
Control assays contained no azole, but an equivalent volume of DMF. Experiments were undertaken in duplicate.

CYP168A1 [5] = target: T1, CYP168A1; settings: for Turnover no., ω-1- carbon hydroxylated / % Product, ω-1- carbon hydroxylated / Turnover no., ω-2- carbon hydroxylated / % Product, ω-2- carbon hydroxylated: 100 μM substrate, mean of two replicates ± standard error; for Turnover no., ω-1- carbon hydroxylated / Turnover no., ω-2- carbon hydroxylated: 0.25 μM CYP168A1, 37°C; for % Product, ω-1- carbon hydroxylated / % Product, ω-2- carbon hydroxylated: 0.25 μM CYP168A1, 2.5 h at 37°C; for hydroxylation rate at both the ω-1- and ω-2-positions (total): sum of ω-1 and ω-2 turnover
CYP168A1 [6] = settings: comparison with ref 40
[7] = 5 μM CYP168A1, cuvette path length 10 mm
[8] = 5 μM CYP168A1, path length 10 mm
[9] = 5 μM CYP168A1, 0.1 M Tris-HCl pH 8.1, room temperature, rearranged Morrison equation

T1 sequence (Q9I107 entry or part of it): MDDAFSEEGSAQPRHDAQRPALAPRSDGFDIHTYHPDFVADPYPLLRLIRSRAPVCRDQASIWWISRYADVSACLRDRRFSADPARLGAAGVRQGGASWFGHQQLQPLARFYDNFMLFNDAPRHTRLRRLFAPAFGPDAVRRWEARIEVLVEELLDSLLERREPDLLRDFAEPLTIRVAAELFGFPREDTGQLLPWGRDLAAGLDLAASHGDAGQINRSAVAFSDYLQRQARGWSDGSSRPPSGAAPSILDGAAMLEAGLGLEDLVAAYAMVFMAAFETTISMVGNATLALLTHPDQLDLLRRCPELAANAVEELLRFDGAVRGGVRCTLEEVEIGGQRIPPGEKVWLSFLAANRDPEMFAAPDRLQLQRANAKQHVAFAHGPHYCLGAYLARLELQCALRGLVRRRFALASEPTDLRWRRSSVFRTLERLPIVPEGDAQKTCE

Compound	fold-difference in apparent Ks values compared to stearic and linoleic acids (CYP168A1 [1])	ΔAmax (CYP168A1 [1]; [7])	Low- to high-spin state change (%) (CYP168A1 [1]; [8])	Kd (CYP168A1 [1]; [9])	Turnover no., ω-1- carbon hydroxylated (CYP168A1 [5])	% Product, ω-1- carbon hydroxylated (CYP168A1 [5])	Turnover no., ω-2- carbon hydroxylated (CYP168A1 [5])	% Product, ω-2- carbon hydroxylated (CYP168A1 [5])	hydroxylation rate at both the ω-1- and ω-2-positions (total) (CYP168A1 [5])	further results
CCCCC/C=C\C/C=C\C/C=C\C/C=C\CCCC(=O)O [Arachidonic acid, arachidonic acid]	~9160 fold	–	–	–	–	–	–	–	–	Ks value, fold larger than stearic acid (CYP168A1 [1]): 9000 fold; ΔAmax (CYP168A1 [1]; 5 μM CYP168A1, cuvette path length 4.5 mm): 0.071 ±0.009 ^b; Ks in this study, fold higher than recently reported (CYP168A1 [1]; compared with ref 28): over 400 fold; Low- to high-spin state change (%) (CYP168A1 [1]; 5 μM CYP168A1, path length 4.5 mm): 31.6 ±4.0 ^b %; Low- to high-spin state change (%) (CYP168A1 [1]; 5 μM CYP168A1, path length 4.5 mm, listed as arachidonic acid): 32%; Kd (CYP168A1 [1]; 5 μM CYP168A1, Michaelis-Menten equation, saturation not achieved at 660 μM): 458000 ± 87000 nM; Kd (CYP168A1 [1]; 5 μM CYP168A1, Michaelis-Menten equation, saturation not achieved at 660 μM, listed as arachidonic acid): ~460000 nM; Kd (CYP168A1 [2]): 960 nM; CYP168A1 turnover number (CYP168A1 [3]): 0.222 min⁻¹
CN(C)C=O [DMF, dimethylformamide]	–	–	–	–	–	–	–	–	–	reduction in oleic acid turnover (CYP168A1 [4]): 10 fold
CCCCC/C=C\C/C=C\CCCCCCCC(=O)O [Linoleic acid, linoleic acid]	–	0.142 ±0.013	28.3 ±2.6%	< 50 nM	0.35 ± 0.03 min⁻¹	14 ± 1.3%	–	–	–	Low- to high-spin state change (%) (CYP168A1 [1]; 5 μM CYP168A1, path length 10 mm, listed as linoleic acid): 28%; Turnover no., ω-1- carbon hydroxylated (CYP168A1 [5]; listed as linoleic acid): 0.35 min⁻¹
CCCCCCCCCCCCCC(=O)O [Myristic acid, myristic acid]	~5 fold	–	22.8 ±1.6%	249 ± 103 nM	0.27 ± 0.02 min⁻¹	11 ± 0.6%	0.033 ± 0.001 min⁻¹	1.3 ± 0.03%	0.30 min⁻¹	Low- to high-spin state change (%) (CYP168A1 [1]; 5 μM CYP168A1, path length 10 mm, listed as myristic acid): 23%; Kd (CYP168A1 [1]; 5 μM CYP168A1, 0.1 M Tris-HCl pH 8.1, room temperature, rearranged Morrison equation, listed as myristic acid): 250 nM; catalytic turnover, fold lower than palmitic acid (CYP168A1 [5]): 5.3 fold; fold less ω-1-hydroxy product formed than with palmitic acid as substrate (CYP168A1 [5]): 4.7 fold; fold less ω-2-hydroxy product formed than with palmitic acid as substrate (CYP168A1 [5]): 10.3 fold
CCCCCCCC/C=C\CCCCCCCC(=O)O [Oleic acid, oleic acid]	–	0.277 ±0.014	55.4 ±2.8%	142 ± 12 nM	–	49 ± 1.2%	–	–	–	Low- to high-spin state change (%) (CYP168A1 [1]; 5 μM CYP168A1, path length 10 mm, listed as oleic acid): 55%; Kd (CYP168A1 [1]; 5 μM CYP168A1, 0.1 M Tris-HCl pH 8.1, room temperature, rearranged Morrison equation, listed as oleic acid): ~150 nM
CCCCCCCCCCCCCCCC(=O)O [Palmitic acid, palmitic acid]	~2 fold	0.290 ±0.015	58.1 ±3.0%	117 ± 56 nM	1.27 ± 0.10 min⁻¹	49 ± 3.8%	0.34 ± 0.10 min⁻¹	13 ± 4.0%	1.61 min⁻¹	Low- to high-spin state change (%) (CYP168A1 [1]; 5 μM CYP168A1, path length 10 mm, listed as palmitic acid): 58%; Kd (CYP168A1 [1]; 5 μM CYP168A1, 0.1 M Tris-HCl pH 8.1, room temperature, rearranged Morrison equation, listed as palmitic acid): 120 nM; Turnover no., ω-1- carbon hydroxylated (CYP168A1 [5]; listed as palmitic acid): 1.27 min⁻¹; Turnover no., ω-2- carbon hydroxylated (CYP168A1 [5]; listed as palmitic acid): 0.34 min⁻¹; turnover, fold greater than observed with Mycobacterium tuberculosis CYP124 (CYP168A1 [6]): 23 fold
CCCCCC/C=C\CCCCCCCC(=O)O [Palmitoleic acid, palmitoleic acid]	~3 fold	0.185 ±0.006	37.0 ±1.2%	155 ± 83 nM	0.38 ± 0.06 min⁻¹	15 ± 2.4%	–	–	–	Low- to high-spin state change (%) (CYP168A1 [1]; 5 μM CYP168A1, path length 10 mm, listed as palmitoleic acid): 37%; Kd (CYP168A1 [1]; 5 μM CYP168A1, 0.1 M Tris-HCl pH 8.1, room temperature, rearranged Morrison equation, listed as palmitoleic acid): ~150 nM; Turnover no., ω-1- carbon hydroxylated (CYP168A1 [5]; listed as palmitoleic acid): 0.38 min⁻¹
CCCCCCCCCCCCCCCCCC(=O)O [Stearic acid, stearic acid]	–	0.328 ±0.020	65.6 ±4.1%	< 50 nM	1.07 ± 0.09 min⁻¹	41 ± 2.9%	0.17 ± 0.01 min⁻¹	6.6 ± 0.5%	1.24 min⁻¹	Ks in this study, fold lower than recently reported (CYP168A1 [1]; compared with ref 28): over 6 fold; Low- to high-spin state change (%) (CYP168A1 [1]; 5 μM CYP168A1, path length 10 mm, listed as stearic acid): 66%; Kd (CYP168A1 [2]; read-out: Ks reported for P. aeruginosa CYP168A1): 327 nM; catalytic turnover, fold greater than that for linoleic acid (CYP168A1 [5]): 3.5 fold; fold less ω-1-hydroxy product formed than with palmitic acid as substrate (CYP168A1 [5]): 1.2 fold; fold less ω-2-hydroxy product formed than with palmitic acid as substrate (CYP168A1 [5]): 2 fold
